From US8809368B2, “Compounds affecting gap junction activity” (Kansas State University Research Foundation, priority 2006, dated 2014)

Key:
[1] = tested on: T47D cells; assay: Cell morphology, T47D cells; type: cell-based, human; conditions: varying concentrations, 24 hours
Description: Cell Morphology: T47D cells (1000 cells/ml) were seeded in a six-well plate for 24 hours. Next day, cells were dosed with varying concentrations of PQ1 for 24 hours. Cells were observed under a microscope before and after the experiment. No effect seen on the morphology of cells in the presence of PQ1.

[2] = tested on: T47D cells; assay: MTT assay, cell proliferation and viability, T47D cells; type: cell-based, human; conditions: 200 nM, 24 hours
Description: T47D breast cancer cells were treated with various concentrations of PQ1 for 24 hours. MTT assay was performed with adherent cell cultures using a culture medium free of phenol red and of serum. Solution containing MTT was metabolized by the cells (incubation period 3 hours). After solubilization of the MTT crystals with the solubilization solution MTT, the amount of dye was measured spectrophotometrically at 540 nm.
MTT assay: This assay is done to measure cell proliferation and viability. Yellow MTT (3-(4,5-Dimethylthiazol-2-yl)-2,5-diphenyltetrazolium bromide, a tetrazole) is reduced to purple crystals, formazan in the mitochondria of living cells. A solubilization solution is added to dissolve the insoluble purple formazan product into a colored solution. The absorbance of this colored solution can be measured by a spectrophotometer. T47 D cells (20,000) were grown in 96-well plate and dosed with 10, 100, 200, 500 nM of PQ1 compound in 100 μl of complete media for 24 hours. MTT (20 μl) was added to the cells and purple formazan crystals were observed after 90 minutes. A solubilization solution (0.35 N HCl) was added to dissolve the formazan and the absorbance was measured at 595 nm wavelength with a background wavelength 690 nm by a spectrophotometer.
The cytotoxicity of PQ1 in MEC and T47D cells using MTT assay was also determined. Cells were treated with 10, 100, 200, and 500 nM PQ1 for 24 hours. MTT assay was performed according to the manufacture's recommendations. A 200 nM PQ1 has 67% cell viability compared to controls (FIG. 16). Treatments of 100 and 200 nM PQ1 have 95% and 103% MEC cell viability compared to control. However, both MEC and T47D cells decrease cell viability to 50% and 65% at 1 μM PQ1, respectively. Thus, 100-200 nM of PQ1 is sufficient to enhance GJIC activity.
MTT assay. […] After solubilization of the MTT crystals with the solubilization solution MTT, the amount of dye will be measured spectrophotometrically at 540 nm.

[3] = tested on: Cx32; assay: Western blot of Cx32 in T47D cells; type: cell-based, human; conditions: 10, 100, 200 and 500 nM, 24 hours
Description: T47D cells were dosed with PQ1 for 24 hours. The Western blot analysis was performed as described in Materials and Methods. Whole cell extract was analyzed for Cx 43, Cx32, and Cx26. Experiment was performed at least three times.
Furthermore, whole cell extract of PQ1 treatment was analyzed for the changes in gap junctional proteins, connexins. Cells were treated with 10, 100, 200, and 500 nM PQ1 for 24 hours. Western blot analysis was performed against Cx26, Cx32, and Cx43 (FIG. 17). […] Anti-tubulin was used as a loading control.
Western Blot Analysis. Cells were grown in serum supplemented RPMI media until they were 90% confluent in 75 cm^2 flasks. Cells were kept in starving media containing phenol red-free DMEM with 5% charcoal dextran stripped serum, overnight. Cells were dosed with 0, 10, 100, 200 and 500 nM of PQ1 for 24 hours. Cells were washed three times with cold PBS and then were harvested using lysis buffer (20 mM Tris pH 7.5, 0.5 mM EDTA, 0.5 mM EGTA, 0.5% Triton X-100) with 1:1000 dilution of protease inhibitors (Sigma-Aldrich, Saint Louis, Mo.). Cell lysate was sonicated and centrifuged at 13,000 rpm for 30 minutes at 4° C. […] Western blots were detected by enhanced chemiluminescence detection reagents (Pierce, Rockford, Ill., USA).

[4] = tested on: Cx43; assay: Western blot of Cx43 and phosphoCx43-Ser368 in R28 cells; type: cell-based, rat; conditions: PQ1, CoCl2 or a combination of both
Description: (A) About 70% confluent retinal R28 cells were treated with 100, 200 and 500 μM CoCl2 for 24 h with or without the pre-treatment of PQ1 (10 μM, 40 min) in a cell culture chamber (5% CO2, room air, 37° C.). Caspase-3 activation was determined by Western blotting in whole cell homogenates (WCH). (B) HIF1α stabilization was measured in the nuclear extracts (NE) after treatment with 500 μM CoCl2 at different time intervals with or without the pretreatment of PQ1. […] Levels of Cx43 and phosphoCx43-Ser368 are measured in WCH. β-Actin is used as a loading control.
Western blot. Western blotting was performed as described previously. Anti-Cx43 was purchased from Fred Hutchinson cancer research center (# Cx43NT1), anti-HIF1a was purchased from Novus Biologicals (# NB100-105), and anti-caspase-3 (# 9661), phosphor-Cx43 (Ser368) (#3511S) were purchased from Cell Signaling Technology and anti-b-actin was purchased from Sigma (# A5441).
Next, it was determined whether PQ1 inhibition of gap junctions could prevent retinal neurosensory R28 cells from apoptosis using a chemical (CoCl2)-induced ischemia system as our model. […] CoCl2 at 500 μM caused stabilization of HIF1a in the nuclear extracts and this stabilization started as early as three hours after treatment (FIG. 20B). This confirmed induction of hypoxia. […]

In the case of `COc1cc(NCCCN)c2nccc(C)c2c1Oc1cccc(C(F)(F)F)c1.O=C(O)CCC(=O)O` [PQ1, 6-Methoxy-8-[(3-aminopropyl)amino]-4-methyl-5-(3-trifluoromethylphenyloxy) quinoline succinic acid], the cell morphology [1] is reported as “No effect”, the “decrease in cell proliferation” value [2] is reported as 40% and the Cx32 expression [3] is reported as “no effect”. The “Cx43 gap junction protein levels” value [4] was “did not cause any change” and the “phosphorylation of Cx43 at residue ser368” value [4] was “did not cause any change”.
